Reference: US12215129B2, “Antibacterial cyclopeptides targeting acinetobacter and other gram-negative pathogens” (priority 2020, dated 2025)
Starred links: 1 amine or outer side, 2 acyl side, 3 side chain; linkers in the order of their positions; H or OH if unused. Positions of bridges follow the written chain, without caps; N, C: chain ends. Non-standard residues stand in square brackets, D forms with d. Residues, ends and D or L forms follow the SMILES beside them. *: point of attachment. dAsp(3R-OH) = N[C@@H](C(=O)O)[C@@H](O)C(=O)O; X1 = NC[C@H](O)[C@@H](N[*:1])C(=O)[*:2]; X2 = CCC(C)(O)[C@H](N[*:1])C(=O)[*:2]; d(aIle) = CC[C@H](C)[C@@H](N)C(=O)O; Myristoyl = CCCCCCCCCCCCCC(=O)*; dOrn = NCCC[C@@H](N)C(=O)O; hSer = N[C@@H](CCO)C(=O)O

Key:
[1] = mouse, in vivo
[2] = in vivo; settings: female, BALB/c, mouse
[3] = iv, 5 mg/kg, Mean plasma concentration

For `CCCCCCCCCCCCCC(=O)N[C@H](CCCN)C(=O)N[C@@H](CO)C(=O)N[C@H](C(=O)N[C@@H](C(=O)N[C@@H](C(=O)N[C@@H]1C(=O)NCC(=O)N[C@@H](C(C)(O)CC)C(=O)N[C@H]([C@@H](C)CC)C(=O)N[C@@H](CCO)C(=O)N[C@@H](C)C(=O)N[C@H]([C@@H](C)CC)C(=O)N[C@@H](CCC(=O)O)C(=O)O[C@@H]1C)[C@@H](O)CN)[C@@H](O)C(=O)O)C(C)C` (stereo partly drawn) [Compound 1, Turnercyclamycin A] (Myristoyl-[dOrn]SV[dAsp(3R-OH)][X1]TG[X2][d(aIle)][hSer]A[d(aIle)]E; ester 6-C), the “B.W. (g)” value [1] was “−”, the “Body Temperature” value [1] was “−” and the Convulsion [1] was “−”. For the same compound, the “Convulsion C.T.C-T” value [1] was “−”, the “Dec. Exploration” value [1] was “−” and the “Dec. Palpebral” value [1] was “−”. The “Dec. Palpebral Size” value [1] was “−”, the “Dec. Startle” value [1] was “−” and the “Dec. Startle Response” value [1] was “−”. For the same compound, the “Dec. Touch” value [1] was “−”, the “Dec. Touch Response” value [1] was “−” and the Diarrhea [1] was “−”. For the same compound, the “Grip Strength” value [1] was “−”, the Hyperactivity [1] was “−” and the “Inc. Exploration” value [1] was “−”. The “Inc. Palpebral Size” value [1] was “−”, the “Inc. Startle” value [1] was “−” and the Lacrimation [1] was “−”. For the same compound, the “Limb Tone” value [1] was “+”, the Piloerection [1] was “±” and the Pinna [1] was “−”. The Placing [1] was “−”, the Righting [1] was “−” and the “Salivation F.V.” value [1] was “−”. The “Skin Color” value [1] was “−”, the “Straub Tail” value [1] was “−” and the “adverse effects noted after the two administrations” value [1] was “decrease in adnominal tone, limb tone, and spontaneous activity, and tremor, piloerection, and increase in the respiration rate (fast)”. The “dose up to which well tolerated in mice” value [1] was “up to 50 mg/kg”, the “more pronounced adverse effects elicited” value [1] was “vocalization, ataxia, reactivity, and hunch back” and the clearance [2] was 0.29 mL/min/kg. It also gave an AUC(0-inf) ([2]; iv, 5 mg/kg) of 290 µg·h/mL, an AUC(0-t) ([2]; iv, 5 mg/kg) of 285 µg·h/mL and a C0 ([2]; iv, 5 mg/kg) of 33700 ng/mL. For the same compound, the MRT ([2]; iv, 5 mg/kg) was 5.83 h, the Vd ([2]; iv, 5 mg/kg) was 0.1 L/kg and the clearance ([2]; iv, 5 mg/kg) was 0.29 mL/min/kg. The half-life ([2]; iv, 5 mg/kg) was 4.35 h, the level at 0.05 h [2, 3] was 53300 ng/mL and the level at 0.167 h [2, 3] was 38600 ng/mL. The level at 0.5 h [2, 3] was 33700 ng/mL, the level at 1 h [2, 3] was 29300 ng/mL and the level at 2 h [2, 3] was 26200 ng/mL. The level at 4 h [2, 3] was 22500 ng/mL, the level at 8 h [2, 3] was 12000 ng/mL and the level at 24 h [2, 3] was 931 ng/mL. For the same compound, the level at 0.5 h ([2]; iv, 5 mg/kg, Sample concentration in plasma (individual mouse)) was 34400 ng/mL.
